Test results published in US20220089598A1, “INHIBITORS OF HUMAN IMMUNODEFICIENCY VIRUS REPLICATION” (VIIV HEALTHCARE UK (No. 5) LIMITED, priority 2018, published 2022).

Key:
[1] = tested on: recombinant NL4-3 virus (Renilla luciferase) in MT-2 cells; assay: HIV cell culture assay (antiviral activity, luciferase readout); type: cell-based; conditions: Renilla, NL43
Protocol: HIV cell culture assay—MT-2 cells, 293T cells and the proviral DNA clone of NL4-3 virus were obtained from the NIH AIDS Research and Reference Reagent Program. MT-2 cells were propagated in RPMI 1640 media supplemented with 10% heat inactivated fetal bovine serum (FBS), 100 μg/ml penicillin G and up to 100 units/mL streptomycin. The 293T cells were propagated in DMEM media supplemented with 10% heat inactivated FBS, 100 μg/mL penicillin G and 100 μg/mL streptomycin. A recombinant NL4-3 proviral clone, in which a section of the nef gene was replaced with the Renilla luciferase gene, was used to make the reference virus used in these studies. The recombinant virus was prepared through transfection of the recombinant NL4-3 proviral clone into 293T cells using Transit-293 Transfection Reagent from Mirus Bio LLC (Madison, Wis.). Supernatent was harvested after 2-3 days and the amount of virus present was titered in MT-2 cells using luciferase enzyme activity as a marker by measuring luciferase enzyme activity. Luciferase was quantitated using the EnduRen Live Cell Substrate from Promega (Madison, Wis.). Antiviral activities of compounds toward the recombinant virus were quantified by measuring luciferase activity in MT-2 cells infected for 4-5 days with the recombinant virus in the presence of serial dilutions of the compound.
The 50% effective concentration (EC50) was calculated by using the exponential form of the median effect equation where (Fa)=1/[1+(ED50/drug conc.)m] (Johnson V A, Byington R T. Infectivity Assay. In Techniques in HIV Research. ed. Aldovini A, Walker B D. 71-76. New York: Stockton Press. 1990).

[2] = Compound cytotoxicity, XTT-based colorimetric assay; type: cell-based; conditions: human; uninfected MT2 cells, day 4, XTT assay
Protocol: Compound cytotoxicity and the corresponding CC50 values were determined using the same protocol as described in the antiviral assay except that uninfected cells were used. Cytotoxicity was assessed on day 4 in uninfected MT2 cells by using a XTT (2,3-bis[2-Methoxy-4-nitro-5-sulfophenyl]-2H-tetrazolium-5-carboxyanilide inner salt)-based colorimetric assay (Sigma-Aldrich, St Louis, Mo.).

What does the source list for COc1nc2nc([C@H](Cc3cc(F)cc(F)c3)NC(=O)Cn3nc(C(F)(F)F)c4c3C(F)(F)[C@@H]3C[C@H]43)n(-c3ccc(Cl)c4c(NS(C)(=O)=O)nn(C)c34)c(=O)c2cc1-c1ccccc1F (atropisomer, axis not shown; (P)) [Example 31, N—((S)-1-((3P)-3-(4-chloro-1-methyl-3-(methylsulfonamido)-1H-indazol-7-yl)-6-(2-fluorophenyl)-7-methoxy-4-oxo-3,4-dihydropyrido[2,3-d]pyrimidin-2-yl)-2-(3,5-difluorophenyl)ethyl)-2-((3bS,4aR)-5,5-difluoro-3-(trifluoromethyl)-3b,4,4a,5-tetrahydro-1H-cyclopropa[3,4]cyclopenta[1,2-c]pyrazol-1-yl)acetamide]?
EC50 [1]: 0.16 nM; CC50 at 4 day [2]: > 500 nM

What does the source list for COc1c(F)ccc(-c2ccc3c(=O)n(-c4ccc(Cl)c5c(NS(C)(=O)=O)nn(C)c45)c([C@H](Cc4cc(F)cc(F)c4)NC(=O)Cn4nc(C(F)F)c5c4C(F)(F)[C@@H]4C[C@H]54)nc3n2)c1F (atropisomer, axis not shown; (P)) [Example 26, N—((S)-1-((3P)-3-(4-chloro-1-methyl-3-(methylsulfonamido)-1H-indazol-7-yl)-7-(2,4-difluoro-3-methoxyphenyl)-4-oxo-3,4-dihydropyrido[2,3-d]pyrimidin-2-yl)-2-(3,5-difluorophenyl)ethyl)-2-((3bS,4aR)-3-(difluoromethyl)-5,5-difluoro-3b,4,4a,5-tetrahydro-1H-cyclopropa[3,4]cyclopenta[1,2-c]pyrazol-1-yl)acetamide]?
EC50 [1]: 0.062 nM; CC50 at 4 day [2]: > 100 nM

What does the source list for Cn1nc(NS(C)(=O)=O)c2c(Cl)ccc(-n3c([C@H](Cc4cc(F)cc(F)c4)NC(=O)Cn4nc(C(F)F)c5c4C(F)(F)[C@@H]4C[C@H]54)nc4nc(-c5c(F)cc(F)cc5F)ccc4c3=O)c21 (atropisomer, axis not shown; (P)) [Example 28, N—((S)-1-((3P)-3-(4-chloro-1-methyl-3-(methylsulfonamido)-1H-indazol-7-yl)-4-oxo-7-(2,4,6-trifluorophenyl)-3,4-dihydropyrido[2,3-d]pyrimidin-2-yl)-2-(3,5-difluorophenyl)ethyl)-2-((3bS,4aR)-3-(difluoromethyl)-5,5-difluoro-3b,4,4a,5-tetrahydro-1H-cyclopropa[3,4]cyclopenta[1,2-c]pyrazol-1-yl)acetamide]?
EC50 [1]: 0.032 nM; CC50 at 4 day [2]: > 100 nM

For Cn1nc(NS(C)(=O)=O)c2c(Cl)ccc(-n3c([C@H](Cc4cc(F)cc(F)c4)NC(=O)Cn4nc(C(F)F)c5c4C(F)(F)[C@@H]4C[C@H]54)nc4nc(-c5ccc(F)c(CO)c5)ccc4c3=O)c21 (atropisomer, axis not shown; (P)) [Example 5, N—((S)-1-((3P)-3-(4-chloro-1-methyl-3-(methylsulfonamido)-1H-indazol-7-yl)-7-(4-fluoro-3-(hydroxymethyl)phenyl)-4-oxo-3,4-dihydropyrido[2,3-d]pyrimidin-2-yl)-2-(3,5-difluorophenyl)ethyl)-2-((3bS,4aR)-3-(difluoromethyl)-5,5-difluoro-3b,4,4a,5-tetrahydro-1H-cyclopropa[3,4]cyclopenta[1,2-c]pyrazol-1-yl)acetamide], which EC50 [1] is on record?
Its EC50 is 0.16 nM.

What about the CC50 at 4 day [2] of the same molecule?
Its CC50 at 4 day is > 500 nM.

Which EC50 [1] does the source give for Cn1nc(NS(C)(=O)=O)c2c(Cl)ccc(-n3c([C@H](Cc4cc(F)cc(F)c4)NC(=O)Cn4nc(C(F)F)c5c4C(F)(F)[C@@H]4C[C@H]54)nc4nc(-c5cccc(F)c5F)ccc4c3=O)c21 (atropisomer, axis not shown; (P)) [Example 4, N—((S)-1-((3P)-3-(4-chloro-1-methyl-3-(methylsulfonamido)-1H-indazol-7-yl)-7-(2,3-difluorophenyl)-4-oxo-3,4-dihydropyrido[2,3-d]pyrimidin-2-yl)-2-(3,5-difluorophenyl)ethyl)-2-((3bS,4aR)-3-(difluoromethyl)-5,5-difluoro-3b,4,4a,5-tetrahydro-1H-cyclopropa[3,4]cyclopenta[1,2-c]pyrazol-1-yl)acetamide] here?
The EC50 was 0.092 nM.

And the CC50 at 4 day [2]?
The CC50 at 4 day was > 100 nM.

For Cn1nc(NS(C)(=O)=O)c2c(Cl)ccc(-n3c([C@H](Cc4cc(F)cc(F)c4)NC(=O)Cn4nc(C(F)F)c5c4C(F)(F)[C@@H]4C[C@H]54)nc4nc(-c5ccc(F)c(C#N)c5)ccc4c3=O)c21 (atropisomer, axis not shown; (P)) [Example 30, N—((S)-1-((3P)-3-(4-chloro-1-methyl-3-(methylsulfonamido)-1H-indazol-7-yl)-7-(3-cyano-4-fluorophenyl)-4-oxo-3,4-dihydropyrido[2,3-d]pyrimidin-2-yl)-2-(3,5-difluorophenyl)ethyl)-2-((3bS,4aR)-3-(difluoromethyl)-5,5-difluoro-3b,4,4a,5-tetrahydro-1H-cyclopropa[3,4]cyclopenta[1,2-c]pyrazol-1-yl)acetamide], which EC50 [1] is on record?
Its EC50 is 0.078 nM.

And the CC50 at 4 day [2]?
The CC50 at 4 day was > 100 nM.

Which EC50 [1] does the source give for Cn1nc(NS(C)(=O)=O)c2c(Cl)ccc(-n3c([C@H](Cc4cc(F)cc(F)c4)NC(=O)Cn4nc(C(F)F)c5c4C(F)(F)[C@@H]4C[C@H]54)nc4nc(-c5ccc(Cl)cc5F)ccc4c3=O)c21 (atropisomer, axis not shown; (P)) [Example 8, N—((S)-1-((3P)-3-(4-chloro-1-methyl-3-(methylsulfonamido)-1H-indazol-7-yl)-7-(4-chloro-2-fluorophenyl)-4-oxo-3,4-dihydropyrido[2,3-d]pyrimidin-2-yl)-2-(3,5-difluorophenyl)ethyl)-2-((3bS,4aR)-3-(difluoromethyl)-5,5-difluoro-3b,4,4a,5-tetrahydro-1H-cyclopropa[3,4]cyclopenta[1,2-c]pyrazol-1-yl)acetamide] here?
Its EC50 is 0.067 nM.

What about the CC50 at 4 day [2] of the same molecule?
Its CC50 at 4 day is > 20000 nM.

For Cn1nc(NS(C)(=O)=O)c2c(Cl)ccc(-n3c([C@H](Cc4cc(F)cc(F)c4)NC(=O)Cn4nc(C(F)F)c5c4C(F)(F)[C@@H]4C[C@H]54)nc4nc(-c5c(F)cccc5F)ccc4c3=O)c21 (atropisomer, axis not shown; (P)) [Example 3, N—((S)-1-((3P)-3-(4-chloro-1-methyl-3-(methylsulfonamido)-1H-indazol-7-yl)-7-(2,6-difluorophenyl)-4-oxo-3,4-dihydropyrido[2,3-d]pyrimidin-2-yl)-2-(3,5-difluorophenyl)ethyl)-2-((3bS,4aR)-3-(difluoromethyl)-5,5-difluoro-3b,4,4a,5-tetrahydro-1H-cyclopropa[3,4]cyclopenta[1,2-c]pyrazol-1-yl)acetamide], which EC50 [1] is on record?
The EC50 was 0.11 nM.

And the CC50 at 4 day [2]?
Its CC50 at 4 day is > 100 nM.

Which EC50 [1] does the source give for Cn1nc(NS(C)(=O)=O)c2c(Cl)ccc(-n3c([C@H](Cc4cc(F)cc(F)c4)NC(=O)Cn4nc(C(F)F)c5c4C(F)(F)[C@@H]4C[C@H]54)nc4cc(-c5ccc(F)cc5F)cnc4c3=O)c21 (atropisomer, axis not shown; (P)) [Example 37, N—((S)-1-((3P)-3-(4-chloro-1-methyl-3-(methylsulfonamido)-1H-indazol-7-yl)-7-(2,4-difluorophenyl)-4-oxo-3,4-dihydropyrido[3,2-d]pyrimidin-2-yl)-2-(3,5-difluorophenyl)ethyl)-2-((3bS,4aR)-3-(difluoromethyl)-5,5-difluoro-3b,4,4a,5-tetrahydro-1H-cyclopropa[3,4]cyclopenta[1,2-c]pyrazol-1-yl)acetamide] here?
The EC50 was 2 nM.

And the CC50 at 4 day [2]?
Its CC50 at 4 day is > 500 nM.

With Cn1nc(NS(C)(=O)=O)c2c(Cl)ccc(-n3c([C@H](Cc4cc(F)cc(F)c4)NC(=O)Cn4nc(C(F)F)c5c4C(F)(F)[C@@H]4C[C@H]54)nc4nc(-c5cc(F)c(F)c(F)c5)ccc4c3=O)c21 (atropisomer, axis not shown; (P)) [Example 12, N—((S)-1-((3P)-3-(4-chloro-1-methyl-3-(methylsulfonamido)-1H-indazol-7-yl)-4-oxo-7-(3,4,5-trifluorophenyl)-3,4-dihydropyrido[2,3-d]pyrimidin-2-yl)-2-(3,5-difluorophenyl)ethyl)-2-((3bS,4aR)-3-(difluoromethyl)-5,5-difluoro-3b,4,4a,5-tetrahydro-1H-cyclopropa[3,4]cyclopenta[1,2-c]pyrazol-1-yl)acetamide] as the molecule, how does the EC50 [1] read?
Its EC50 is 0.21 nM.

And the CC50 at 4 day [2]?
Its CC50 at 4 day is > 100 nM.

Which EC50 [1] does the source give for CS(=O)(=O)Nc1nn(CC(F)(F)F)c2c(-n3c([C@H](Cc4cc(F)cc(F)c4)NC(=O)Cn4ccc(C5CC5)n4)nc4nc(-c5ccccc5F)ccc4c3=O)ccc(Cl)c12 (atropisomer, axis not shown; (P)) [Example 36, (S)—N-(1-((3P)-3-(4-chloro-3-(methylsulfonamido)-1-(2,2,2-trifluoroethyl)-1H-indazol-7-yl)-7-(2-fluorophenyl)-4-oxo-3,4-dihydropyrido[2,3-d]pyrimidin-2-yl)-2-(3,5-difluorophenyl)ethyl)-2-(3-cyclopropyl-1H-pyrazol-1-yl)acetamide] here?
The EC50 was 0.16 nM.

And the CC50 at 4 day [2]?
Its CC50 at 4 day is > 500 nM.
